These results are taken from publication PMC7125101, “Molecular bases for HOIPINs-mediated inhibition of LUBAC and innate immune responses” (Communications Biology, 2020).

Where a name gives a salt, the structure may show the parent alone. Read-outs that look alike come from different tables or passages of the source.

The target of one assay is T1, HOIP (Homo sapiens, UniProt Q96EP0).
T1 construct: gene RNF31; RING2-LDD domain, residues 853–1072
The experiment in a line: X-ray crystal structure at […] Å; also MALDI-TOF intact mass adduct (+[…]) on petit-LUBAC and inhibition of HOIP~ubiquitin thioester formation. It is filed as binding.

The next assay has as its system Karpas1160P. The experiment in a line: cells. Further details: species or system human tumour lines, HEK293T, mouse MEF; Cell viability after 72 h, CellTiter-Glo luminescent assay. Conditions: Homo sapiens, HEK-293T, 72 h.
The subject of the next assay is BJAB. The experiment in a line: cells. Conditions: Homo sapiens, BJAB, 72 h. More on the design: species or system human tumour lines, HEK293T, mouse MEF; Cell viability after 72 h, CellTiter-Glo luminescent assay.
Another assay concerns TK. The experiment in a line: cells. Further details: species or system human tumour lines, HEK293T, mouse MEF; Cell viability after 72 h, CellTiter-Glo luminescent assay. Conditions: Homo sapiens, HEK-293T, 72 h.
For a further assay, the system named is HBL1. The experiment in a line: cells. More on the design: species or system human tumour lines, HEK293T, mouse MEF; Cell viability after 72 h, CellTiter-Glo luminescent assay. Conditions: HBL1, 72 h.
Another assay concerns KM-H2. The experiment in a line: cells. Further details: species or system human tumour lines, HEK293T, mouse MEF; Cell viability after 72 h, CellTiter-Glo luminescent assay. Conditions: Homo sapiens, KM-H2, 72 h.
In the next assay the test system is SU-DHL-4. The assay can be described thus: cells. Conditions: Homo sapiens, SU-DHL-4, 72 h. More on the design: species or system human tumour lines, HEK293T, mouse MEF; Cell viability after 72 h, CellTiter-Glo luminescent assay.
A further assay deals with Jurkat. The assay can be described thus: cells. Conditions: Homo sapiens, Jurkat, 72 h. More on the design: species or system human tumour lines, HEK293T, mouse MEF; Cell viability after 72 h, CellTiter-Glo luminescent assay.
A further assay concerns A549. The assay can be described thus: cells. More on the design: species or system human tumour lines, HEK293T, mouse MEF; Cell viability after 72 h, CellTiter-Glo luminescent assay. Conditions: Homo sapiens, A549, 72 h.
In the next assay the test system is HeLa. The experiment in a line: cells. More on the design: species or system human tumour lines, HEK293T, mouse MEF; Cell viability after 72 h, CellTiter-Glo luminescent assay. Conditions: Homo sapiens, HeLa, 72 h.
Another assay relates to DLBCL2. The experiment in a line: cells. More on the design: species or system human tumour lines, HEK293T, mouse MEF; Cell viability after 72 h, CellTiter-Glo luminescent assay. Conditions: Homo sapiens, HEK-293T, 72 h; read-out: HOIPIN-1 (IC50).
In a further assay the test system is OYB. The experiment in a line: cells. Further details: species or system human tumour lines, HEK293T, mouse MEF; Cell viability after 72 h, CellTiter-Glo luminescent assay. Conditions: Homo sapiens, HEK-293T, 72 h.
A further assay deals with HT. The experiment in a line: cells. Conditions: Homo sapiens, HT, 72 h. Further details: species or system human tumour lines, HEK293T, mouse MEF; Cell viability after 72 h, CellTiter-Glo luminescent assay.
For the next assay, the system named is WT-MEF. The experiment in a line: cells. More on the design: species or system human tumour lines, HEK293T, mouse MEF; Cell viability after 72 h, CellTiter-Glo luminescent assay. Conditions: 72 h. The source says: (§1) Importantly, the polymorphisms in HOIP are closely associated with ABC-DLBCL[23]. […] Therefore, we investigated the effect of HOIPINs on B cell lymphoma cells. […] In ABC-DLBCL cell lines, the phosphorylation of p105 and p65 and the expression of NF-κB target genes were suppressed by HOIPINs (Fig. 6d, e). Moreover, the phosphorylation of IκBα was decreased concomitantly with the reduced intracellular amounts of linear polyubiquitin in HOIPIN-1-treated HBL1 cells (an ABC-DLBCL cell line), but not in BJAB cells (a GCB-DLBCL cell line) (Fig. 6f). […] GCB-DLBCL cells (BJAB, SU-DHL-4, and HT) and ABC-DLBCL cells (TK, DLBCL2, and OYB) were cultured in the presence of DMSO or 10 μM HOIPIN-1. Taking the cell viabilities in the presence of DMSO as 100%, the relative cell viabilities of respective cell line in the presence of HOIPIN-1 were assessed by a CellTiter-Glo luminescent cell viability assay. b HOIPIN-8 enhanced the cell death of ABC-DLBCL cells than HOIPIN-1. DLBCL2 cells or BJAB cells were treated with DMSO, 10 μM HOIPIN-1, or 10 μM HOIPIN-8 for the indicated period, and the relative cell viabilities were assessed as in a. c Caspase activation in ABC-DLBCL cells by HOIPIN-8. Cells were treated with or without 10 μM HOIPIN-8 for 24 h, and cell lysates were immunoblotted with the indicated antibodies. d Reduced NF-κB activation in ABC-DLBCL cells by HOIPIN-8. Cells were treated and analyzed as in c. e HOIPIN-1 suppresses the expression of NF-κB target genes in ABC-DLBCL cells. Cells were treated with 10 μM HOIPIN-1 for 24 h, and qPCR analyses were performed. f Intracellular linear ubiquitin and IκBα phosphorylation in ABC-DLBCL cells are diminished by HOIPIN-1. HBL1 and BJAB cells were treated with 10 μM HOIPIN-1 for the indicated period, and cell lysates were immunoblotted with the indicated antibodies. g HOIPIN-8 has potent inhibitory effects on NF-κB activation and linear ubiquitination in ABC-DLBCL cells than those in HOIPIN-1. HBL1 cells were treated with the indicated concentrations of HOIPIN-1 or -8 for 24 h, and cell lysates were immunoblotted with the indicated antibodies. In b, e, data are shown as mean ± SEM, NS not significant, *P < 0.05, **P < 0.01, ***P < 0.001, ****P < 0.0001, by one-way ANOVA with Tukey’s post hoc test. A549, HEK293T, HeLa (ATCC), optineurin-deficient HeLa[31], HOIP-deficient HeLa, C885A mutant of HOIP-restored HeLa, wild-type MEF, and Sharpin-deficient cpdm MEF cells were cultured in DMEM containing 10% fetal bovine serum, 100 IU/ml penicillin G, and 100 μg/ml streptomycin. […]

In the next assay the test system is T2, cpdm MEF.
T2 construct: cpdm (Sharpin-deficient)
The experiment in a line: cells. Conditions: 72 h. Further details: species or system human tumour lines, HEK293T, mouse MEF; Cell viability after 72 h, CellTiter-Glo luminescent assay.
Excerpt: as §1

The next assay has as its system HEK293T. The experiment in a line: cells. Further details: species or system human tumour lines, mouse MEF; Cell viability after 72 h, CellTiter-Glo luminescent assay. Conditions: Homo sapiens, HEK-293T, 72 h. The source says:
Importantly, the polymorphisms in HOIP are closely associated with ABC-DLBCL[23]. […] Therefore, we investigated the effect of HOIPINs on B cell lymphoma cells. […] In ABC-DLBCL cell lines, the phosphorylation of p105 and p65 and the expression of NF-κB target genes were suppressed by HOIPINs (Fig. 6d, e). Moreover, the phosphorylation of IκBα was decreased concomitantly with the reduced intracellular amounts of linear polyubiquitin in HOIPIN-1-treated HBL1 cells (an ABC-DLBCL cell line), but not in BJAB cells (a GCB-DLBCL cell line) (Fig. 6f). […] GCB-DLBCL cells (BJAB, SU-DHL-4, and HT) and ABC-DLBCL cells (TK, DLBCL2, and OYB) were cultured in the presence of DMSO or 10 μM HOIPIN-1. Taking the cell viabilities in the presence of DMSO as 100%, the relative cell viabilities of respective cell line in the presence of HOIPIN-1 were assessed by a CellTiter-Glo luminescent cell viability assay. b HOIPIN-8 enhanced the cell death of ABC-DLBCL cells than HOIPIN-1. DLBCL2 cells or BJAB cells were treated with DMSO, 10 μM HOIPIN-1, or 10 μM HOIPIN-8 for the indicated period, and the relative cell viabilities were assessed as in a. c Caspase activation in ABC-DLBCL cells by HOIPIN-8. […] Cells were treated and analyzed as in c. e HOIPIN-1 suppresses the expression of NF-κB target genes in ABC-DLBCL cells. […]

Consider `COc1ccccc1C(=O)/C=C/c1ccccc1C(=O)O` [HOIPIN-1, 2-[(1E)-3-(2-methoxyphenyl)-3-oxoprop-1-en-1yl] benzoic acid sodium salt], for which, at HOIP, the “X-ray crystal structure at 1.54 Å; also MALDI-TOF intact mass adduct (+263) on p” value is reported as “HOIPINs are covalently attached to the catalytic Cys885 of HOIP via Michael addition”. In addition, the IC50 was 11 µM with Karpas1160P (read-out: HOIPIN-1 (IC50)); 52.2 µM in the assay on BJAB (read-out: HOIPIN-1 (IC50)); 9.7 µM in the assay with TK (read-out: HOIPIN-1 (IC50)); 16.4 µM in the assay on HBL1 (read-out: HOIPIN-1 (IC50)); 9.6 µM in the assay with KM-H2 (read-out: HOIPIN-1 (IC50)); 46.9 µM in the assay on SU-DHL-4 (read-out: HOIPIN-1 (IC50)). Moreover, the IC50 in the assay with Jurkat (read-out: HOIPIN-1 (IC50)) was 20.6 µM; in the assay on A549 (read-out: HOIPIN-1 (IC50)) it was greater than 100 µM; in the assay on HeLa (read-out: HOIPIN-1 (IC50)), 33.7 µM; with DLBCL2 it was 11.1 µM; in the assay on OYB (read-out: HOIPIN-1 (IC50)), 16 µM; in the assay on HT (read-out: HOIPIN-1 (IC50)), 48.2 µM. Also, the half-maximal inhibitory concentration (IC50) in the assay with WT-MEF (read-out: HOIPIN-1 (IC50)) is greater than 100 µM; in the assay with cpdm MEF (read-out: HOIPIN-1 (IC50)), greater than 100 µM; with HEK293T (read-out: HOIPIN-1 (IC50)), 40.3 µM.
Turning to `Cn1cc(-c2ccc(C(=O)O)c(/C=C/C(=O)c3c(F)cc(-c4cn[nH]c4)cc3F)c2)cn1` [HOIPIN-8, 2-{(E)-3-[2,6-difluoro-4-(1H-pyrazol-4-yl)-phenyl]-3-oxo-propenyl}-4-(1-methyl-1H-pyraol-4-yl)-benzoic acid sodium salt], the IC50 was 27.6 µM with Karpas1160P (read-out: HOIPIN-8 (IC50)); greater than 30 µM in the assay with BJAB (read-out: HOIPIN-8 (IC50)); 3.7 µM with TK (read-out: HOIPIN-8 (IC50)); 16.7 µM in the assay with HBL1 (read-out: HOIPIN-8 (IC50)); 40.7 µM with KM-H2 (read-out: HOIPIN-8 (IC50)); greater than 30 µM in the assay on SU-DHL-4 (read-out: HOIPIN-8 (IC50)). Besides, the IC50 in the assay with Jurkat (read-out: HOIPIN-8 (IC50)) was greater than 100 µM; in the assay with A549 (read-out: HOIPIN-8 (IC50)), greater than 100 µM; with HeLa (read-out: HOIPIN-8 (IC50)), greater than 100 µM; with OYB (read-out: HOIPIN-8 (IC50)), 14.4 µM; in the assay on HT (read-out: HOIPIN-8 (IC50)) it was greater than 30 µM; in the assay with WT-MEF (read-out: HOIPIN-8 (IC50)), 49.7 µM. Besides, the results for the IC50 in the assay on cpdm MEF (read-out: HOIPIN-8 (IC50)) and in the assay with HEK293T (read-out: HOIPIN-8 (IC50)) were 51.8 µM and 70.3 µM, respectively.

The IC50 is the concentration that gives 50% inhibition.
